Test results from patent US9777000B2, “Pyrazole derivative” (MOCHIDA PHARMACEUTICAL CO., LTD., priority 2013, dated 2017).
pIC50: −log10 of the molar value.

These compounds were tested against human PDE10 (Homo sapiens (Human), UniProt Q9Y233) (assay: Evaluation of enzyme inhibitory activity: human PDE10 inhibitory effect (IMAP TR-FRET)). Conditions: cAMP substrate.
Type: biochemical
Method: (Evaluation of Enzyme Inhibitory Activity: Human PDE10 Inhibitory Effect)
IMAP TR-FRET Phosphodiersterase Evaluation Assay Kit (Molecular Device) was used for the measurement. Ten μL of a diluted test compound having each concentration and 5 μL of the enzyme PDE10 (BPA Bioscience) that had been diluted to 2 ng/mL with 1×IMAP Reaction Buffer (prepared with 5×included with the kit, 10 mM Tris-HCl, pH=7.2, 10 mM MgCl2, 0.05% NaN3, and 0.1% BSA) containing 0.1% BSA were added to a 384-well plate (Corning). The obtained mixture was then pre-incubated at room temperature for 5 minutes. Thereafter, 5 μL of cAMP substrate solution which was included with the kit and diluted to 400 nM with 1×IMAP Reaction Buffer containing 0.1% BSA, was added to the reaction solution, and the obtained mixture was reacted at room temperature for 60 minutes. Thereafter, 60 μL of an IMAP TR-FRET Binding solution included with the kit was further added to the reaction solution, and the obtained mixture was then left for 3 hours or more. Subsequently, using ARVO SX (PerkinElmer), the fluorescent intensity of Terbium (Emission=490 nm) and TR-FRET (Emission=520 nm) in the reaction solution were measured at an excitation wavelength of 340 nm, so as to calculate the amount of the generated 5′-AMP. The count of a well to which a solvent had been added instead of the test compound was set at 0%, and the count of a well to which the enzyme PDE10 had not been added was set at 100%. Thus, the inhibitory activity of each test compound was calculated.
The PDE10 inhibitory activity of the test compound was indicated with an IC50 value. […] The test compounds are shown in Table 3 (Table 3-1 and Table 3-2).

Sequence of human PDE10 (Q9Y233 whole entry): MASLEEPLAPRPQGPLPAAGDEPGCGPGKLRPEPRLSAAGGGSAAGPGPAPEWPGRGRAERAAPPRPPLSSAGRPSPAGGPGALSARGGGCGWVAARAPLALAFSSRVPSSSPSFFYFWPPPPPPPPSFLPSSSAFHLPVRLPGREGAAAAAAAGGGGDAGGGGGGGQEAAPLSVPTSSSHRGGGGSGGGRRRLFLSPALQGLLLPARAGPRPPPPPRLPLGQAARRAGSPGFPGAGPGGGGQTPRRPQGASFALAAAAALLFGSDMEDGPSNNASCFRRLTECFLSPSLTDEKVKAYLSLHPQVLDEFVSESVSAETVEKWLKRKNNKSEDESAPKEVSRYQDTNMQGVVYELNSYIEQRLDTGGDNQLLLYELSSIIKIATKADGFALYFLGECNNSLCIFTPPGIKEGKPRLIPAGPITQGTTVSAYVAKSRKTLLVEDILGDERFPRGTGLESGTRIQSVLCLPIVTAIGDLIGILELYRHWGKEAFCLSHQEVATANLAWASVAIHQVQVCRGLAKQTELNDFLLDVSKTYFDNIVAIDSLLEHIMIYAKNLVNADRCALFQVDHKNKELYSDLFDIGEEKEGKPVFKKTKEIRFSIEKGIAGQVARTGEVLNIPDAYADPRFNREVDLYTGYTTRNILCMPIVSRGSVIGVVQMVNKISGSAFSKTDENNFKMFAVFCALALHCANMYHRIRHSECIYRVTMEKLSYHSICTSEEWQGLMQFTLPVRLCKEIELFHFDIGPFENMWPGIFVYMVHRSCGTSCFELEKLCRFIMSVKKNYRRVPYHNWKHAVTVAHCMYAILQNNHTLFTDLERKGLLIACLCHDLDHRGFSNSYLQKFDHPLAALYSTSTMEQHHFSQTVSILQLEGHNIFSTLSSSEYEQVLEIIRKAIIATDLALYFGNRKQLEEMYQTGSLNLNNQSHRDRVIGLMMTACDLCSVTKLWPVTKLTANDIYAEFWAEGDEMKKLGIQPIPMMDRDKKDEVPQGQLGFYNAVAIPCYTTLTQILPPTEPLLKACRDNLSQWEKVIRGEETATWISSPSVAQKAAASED

pIC50, > 8.30:
Cc1ccc(-c2cnn(C)c2C(=O)Nc2ccn3cc(-c4ccccc4)nc3c2)nc1 [Example 1.1, 1-methyl-4-(5-methylpyridin-2-yl)-N-(2-phenylimidazo[1,2-a]pyridin-7-yl)-1H-pyrazole-5-carboxamide]
Cn1ncc(-c2nc(C(F)F)cs2)c1C(=O)NC1CCn2cc(-c3ccc(F)cc3)nc2C1 (stereo not shown) [Example 2.28, 4-(4-(difluoromethyl)thiazol-2-yl)-N-(2-(4-fluorophenyl)-5,6,7,8-tetrahydroimidazo[1,2-a]pyridin-7-yl)-1-methyl-1H-pyrazole-5-carboxamide]
Cc1nc(-c2cnn(C)c2C(=O)NC2CCn3nc(-c4ccccc4)nc3C2)sc1Br (stereo not shown) [Example 5.7, 4-(5-bromo-4-methylthiazol-2-yl)-1-methyl-N-(2-phenyl-5,6,7,8-tetrahydro-[1,2,4]triazolo[1,5-a]pyridin-7-yl)-1H-pyrazole-5-carboxamide]
Cn1ncc(-c2nc(C(F)(F)F)cs2)c1C(=O)NC1CCn2cc(-c3cccc(F)c3)nc2C1 (stereo not shown) [Example 2.8, N-(2-(3-fluorophenyl)-5,6,7,8-tetrahydroimidazo[1,2-a]pyridin-7-yl)-1-methyl-4-(4-(trifluoromethyl)thiazol-2-yl)-1H-pyrazole-5-carboxamide]
Cc1csc(-c2cnn(C)c2C(=O)Nc2ccn3cc(-c4ccccc4)nc3c2)n1 [Example 1.2, 1-methyl-4-(4-methylthiazol-2-yl)-N-(2-phenylimidazo[1,2-a]pyridin-7-yl)-1H-pyrazole-5-carboxamide]
Cc1ccc(-c2cnn(C)c2C(=O)Nc2cc3nc(-c4ccccc4)nn3cc2F)nn1 [Example 3.45, N-(6-fluoro-2-phenyl-[1,2,4]triazolo[1,5-a]pyridin-7-yl)-1-methyl-4-(6-methylpyridazin-3-yl)-1H-pyrazole-5-carboxamide]
Cc1ncc(F)c(-c2cnn(C)c2C(=O)Nc2cc3nc(-c4ccccc4)nn3cc2F)n1 [Example 3.36, 4-(5-fluoro-2-methylpyrimidin-4-yl)-N-(6-fluoro-2-phenyl-[1,2,4]triazolo[1,5-a]pyridin-7-yl)-1-methyl-1H-pyrazole-5-carboxamide]
Cn1ncc(-c2nc(C(F)(F)F)cs2)c1C(=O)NC1CCn2c(nc(-c3ccccc3)c2F)C1 (stereo not shown) [Example 2.19, N-(3-fluoro-2-phenyl-5,6,7,8-tetrahydroimidazo[1,2-a]pyridin-7-yl)-1-methyl-4-(4-(trifluoromethyl)thiazol-2-yl)-1H-pyrazole-5-carboxamide]
Cc1ncc(Cl)c(-c2cnn(C)c2C(=O)Nc2cc3nc(-c4ccccc4)nn3cc2F)n1 [Example 3.41, 4-(5-chloro-2-methylpyrimidin-4-yl)-N-(6-fluoro-2-phenyl-[1,2,4]triazolo[1,5-a]pyridin-7-yl)-1-methyl-1H-pyrazole-5-carboxamide]
Cn1ncc(-c2nc(C(F)F)cs2)c1C(=O)Nc1ccn2nc(-c3ccccc3)nc2c1 [Example 3.15, 4-(4-(difluoromethyl)thiazol-2-yl)-1-methyl-N-(2-phenyl-[1,2,4]triazolo[1,5-a]pyridin-7-yl)-1H-pyrazole-5-carboxamide]
Cn1ncc(-c2nc(C(F)F)cs2)c1C(=O)NC1CCn2cc(-c3ccccc3)nc2C1 (stereo not shown) [Example 2.4, 4-(4-(difluoromethyl)thiazol-2-yl)-1-methyl-N-(2-phenyl-5,6,7,8-tetrahydroimidazo[1,2-a]pyridin-7-yl)-1H-pyrazole-5-carboxamide]
Cn1ncc(-c2nc(C(F)F)c(Cl)s2)c1C(=O)Nc1ccn2cc(-c3ccccc3)nc2c1 [Example 1.7, 4-(5-chloro-4-(difluoromethyl)thiazol-2-yl)-1-methyl-N-(2-phenylimidazo[1,2-a]pyridin-7-yl)-1H-pyrazole-5-carboxamide]
Cn1ncc(-c2ccc(C#N)cn2)c1C(=O)Nc1cc2nc(-c3ccccc3)nn2cc1F [Example 3.23, 4-(5-cyanopyridin-2-yl)-N-(6-fluoro-2-phenyl-[1,2,4]triazolo[1,5-a]pyridin-7-yl)-1-methyl-1H-pyrazole-5-carboxamide]
